Measured values: patent US10189863B2, “5,6-dihydro-4H-benzo[b]thieno-[2,3-d]azepine derivatives” (PULMOCIDE LIMITED, priority 2014, dated 2019)

System: RSV NS-1 gene transcripts
Test: RSV infection in cotton rats: RSV NS-1 gene transcripts in lung (qRT-PCR)
Format: in vivo, Sigmodon hispidus cotton rats
Details: for RSV NS1 gene transcript % inhibition / RSV NS1 gene transcript (/β-actin), Median: intranasal
Description: RSV Infection in Cotton Rats
Male Sigmodon hispidus cotton rats between 6 and 8 weeks of age were infected with hRSV/A/Long (ATCC, Manassas, Va.; 10^5 pfu) in a volume of 0.1 mL of sucrose stabilizing media. Test compounds were dissolved in 100% DMSO (at 3.3, 10, 33 and 100 mg/mL), then diluted at 1:10 in isotonic saline to achieve 10% DMSO in all treatments. Formulations were then sonicated to produce suspensions. The resulting suspensions were administered intranasally (50 μL) by pipette 4 hr before infection (on day 0), and then on days 1, 2 and 3 post infection. Four days after RSV challenge, the animals were euthanised and the lungs were removed. The left lobe was used for viral titration via plaque assay and the lingular lobe for RSV/A/Long NS-1 qRT-PCR and cytokine qRT-PCR.
Total RNA was also extracted from homogenized lung tissue (RNeasy purification kit; Qiagen) and a sample (1 μg) was used to prepare cDNA using QuantiTect Reverse Transcription Kit (Qiagen). For real-time PCR reactions (RSV NS-1 and RANTES genes) the QuantiFast SYBR® Green PCR Kit (Qiagen) was used in a final volume of 25 μL, with final primer concentrations of 0.5 μM. Amplifications were performed on a Bio-Rad iCycler for 1 cycle of 95° C. for 3 min, followed by 40 cycles of 95° C. for 10 sec, 60° C. for 10 sec, and 72° C. for 15 sec. Baseline cycles and cycle threshold (Ct) were calculated by the iQ5 software in the PCR Base Line Subtracted Curve Fit mode. The standard curves were developed using serially diluted cDNA sample most enriched in the transcript of interest (e.g., lungs from day 4 post-primary RSV infection). The Ct values were plotted against log10 cDNA dilution factor. These curves were used to convert the Ct values obtained for different samples to relative expression units which were then normalized to the level of β-actin mRNA (“housekeeping gene”) expressed in the corresponding sample. The mRNA levels were expressed as the geometric mean±SEM for all animals in a group.

With `Cc1cnc(N2CC3(CCOCC3)C2)c(C(=O)Nc2ccc(C(=O)N3CCc4cc(C(=O)Nc5c(C)cccc5F)sc4-c4ccccc43)cc2)c1` [Example 5, N-(2-Fluoro-6-methylphenyl)-6-(4-(5-methyl-2-(7-oxa-2-azaspiro[3.5]nonan-2-yl)nicotinamido)benzoyl)-5,6-dihydro-4H-benzo[b]thieno[2,3-d]azepine-2-carboxamide] the “Effect on RSV NS-1 gene transcripts (in words)” value was “dose-dependent inhibition”, the “RSV NS1 gene transcript % inhibition” value (Drug Conc 0.33 mg/mL) was 55% and the “RSV NS1 gene transcript (/β-actin), Median” value (Drug Conc 0.33 mg/mL) was 2.0 /β-actin. For the same molecule, the “RSV NS1 gene transcript % inhibition” value (Drug Conc 1.0 mg/mL) was 64%, the “RSV NS1 gene transcript (/β-actin), Median” value (Drug Conc 1.0 mg/mL) was 1.6 /β-actin and the “RSV NS1 gene transcript % inhibition” value (Drug Conc 3.3 mg/mL) was 77%. The “RSV NS1 gene transcript (/β-actin), Median” value (Drug Conc 3.3 mg/mL) was 1.0 /β-actin, the “RSV NS1 gene transcript % inhibition” value (Drug Conc 10 mg/mL) was 77% and the “RSV NS1 gene transcript (/β-actin), Median” value (Drug Conc 10 mg/mL) was 1.0 /β-actin.
